Assay results: US11578073B2, “Xanthine analogs as potent anti-West Nile viral agents” (Southern Research Institute, priority 2019, dated 2023)

What was measured:
[1] = cell viability assay (cytotoxicity) in HEK293 cells; assay type: cell-based; conditions: human, read-out: CC50 (50% cytotoxicity concentration)
West Nile virus = experiment: anti-West Nile virus activity of xanthine analogs in HEK293 cells; assay type: cell-based; conditions: HEK293, read-out: EC90 (effective concentration to inhibit 90% of virus)

Compound | CC50 [1] | EC90 (West Nile virus)
Cc1ccc(C)c(CN2CCN(c3nc4c(c(=O)[nH]c(=O)n4C)n3Cc3ccc(F)cc3)CC2)c1 [Compound 14, 8-(4-(2,5-Dimethylbenzyl)piperazin-1-yl)-7-(4-fluorobenzyl)-3-methyl-3,7-dihydro-1H-purine-2,6-dione] | > 30 µM | 6.1 µM
Cn1c(=O)[nH]c(=O)c2c1nc(N1CCC(c3ccccc3)CC1)n2Cc1ccccc1F [Compound 56, 7-(2-Fluorobenzyl)-3-methyl-8-(4-phenylpiperidin-1-yl)-3,7-dihydro-1H-purine-2,6-dione] | 10.7 µM | 2.4 µM
Cn1c(=O)[nH]c(=O)c2c1nc(N1CCN(C(=O)Cc3ccc(C(C)(C)C)cc3)CC1)n2Cc1ccccc1F [Compound 50, 8-(4-(2-(4-(tert-Butyl)phenyl)acetyl)piperazin-1-yl)-7-(2-fluorobenzyl)-3-methyl-3,7-dihydro-1H-purine-2,6-dione] | > 30 µM | 3.7 µM
Cn1c(=O)[nH]c(=O)c2c1nc(N1CCN(CCc3ccc(C(C)(C)C)cc3)CC1)n2Cc1ccccc1F [Compound 47, 8-(4-(4-(tert-Butyl)phenethyl)piperazin-1-yl)-7-(2-fluorobenzyl)-3-methyl-3,7-dihydro-1H-purine-2,6-dione] |  | 13.6 µM
Cn1c(=O)[nH]c(=O)c2c1nc(N1CCN(c3ccccn3)CC1)n2Cc1ccccc1F [Compound 33, 7-(2-Fluorobenzyl)-3-methyl-8-(4-(pyridin-2-yl)piperazin-1-yl)-3,7-dihydro-1H-purine-2,6-dione] |  | > 10 µM
Cn1c(=O)[nH]c(=O)c2c1nc(N1CCC(c3ccc(C#N)cc3)CC1)n2Cc1ccccc1F [Compound 58, 4-(1-(7-(2-Fluorobenzyl)-3-methyl-2,6-dioxo-2,3,6,7-tetrahydro-1H-purin-8-yl)piperidin-4-yl)benzonitrile] |  | > 10 µM
Cn1c(=O)[nH]c(=O)c2c1nc(N1CCN(C3CC3)CC1)n2Cc1ccccc1F [Compound 23, 8-(4-Cyclopropylpiperazin-1-yl)-7-(2-fluorobenzyl)-3-methyl-3,7-dihydro-1H-purine-2,6-dione] |  | > 10 µM
Cc1ccc(C)c(CN2CCN(c3nc4c(c(=O)[nH]c(=O)n4C)n3Cc3ccccc3C#N)CC2)c1 [Compound 11, 2-((8-(4-(2,5-Dimethylbenzyl)piperazin-1-yl)-3-methyl-2,6-dioxo-1,2,3,6-tetrahydro-7H-purin-7-yl)methyl)benzonitrile] | > 30 µM | 6.9 µM
Cc1ccc(C)c(CN2CCN(c3nc4c(c(=O)[nH]c(=O)n4C)n3Cc3ccccc3C(F)(F)F)CC2)c1 [Compound 12, 8-(4-(2,5-Dimethylbenzyl)piperazin-1-yl)-3-methyl-7-(2-(trifluoromethyl)benzyl)-3,7-dihydro-1H-purine-2,6-dione] | 12 µM | 1.1 µM
Cc1ccc(C)c(CN2CCN(c3nc4c(c(=O)[nH]c(=O)n4C)n3Cc3ccc(F)cc3F)CC2)c1 [Compound 15, 7-(2,4-Difluorobenzyl)-8-(4-(2,5-dimethylbenzyl)piperazin-1-yl)-3-methyl-3,7-dihydro-1H-purine-2,6-dione] | > 40 µM | > 10 µM
Cc1cc(C)cc(N2CCN(c3nc4c(c(=O)[nH]c(=O)n4C)n3Cc3ccccc3F)CC2)c1 [Compound 27, 8-(4-(3,5-Dimethylphenyl)piperazin-1-yl)-7-(2-fluorobenzyl)-3-methyl-3,7-dihydro-1H-purine-2,6-dione] | > 30 µM | 10 µM
Cn1c(=O)[nH]c(=O)c2c1nc(N1CCC(F)(F)C1)n2Cc1ccccc1F [Compound 51, 8-(3,3-Difluoropyrrolidin-1-yl)-7-(2-fluorobenzyl)-3-methyl-3,7-dihydro-1H-purine-2,6-dione] |  | > 10 µM
Cn1c(=O)[nH]c(=O)c2c1nc(N1CCN(C3CCC3)CC1)n2Cc1ccccc1F [Compound 25, 8-(4-Cyclobutylpiperazin-1-yl)-7-(2-fluorobenzyl)-3-methyl-3,7-dihydro-1H-purine-2,6-dione] |  | > 10 µM
Cn1c(=O)[nH]c(=O)c2c1nc(N1CCN(C(=O)c3ccc(C(C)(C)C)cc3)CC1)n2Cc1ccccc1F [Compound 44, 8-(4-(4-(tert-Butyl)benzoyl)piperazin-1-yl)-7-(2-fluorobenzyl)-3-methyl-3,7-dihydro-1H-purine-2,6-dione] | > 30 µM | 8.8 µM
C=C(C)c1ccc(CN2CCN(c3nc4c(c(=O)[nH]c(=O)n4C)n3Cc3ccccc3F)CC2)cc1 [Compound 42, 7-(2-Fluorobenzyl)-3-methyl-8-(4-(4-(prop-1-en-2-yl)benzyl)piperazin-1-yl)-3,7-dihydro-1H-purine-2,6-dione] | 22 µM | 2.1 µM
Cn1c(=O)[nH]c(=O)c2c1nc(N1CCN(c3ccc(C(C)(C)C)cc3)CC1)n2Cc1ccccc1F [Compound 29, 8-(4-(4-(tert-Butyl)phenyl)piperazin-1-yl)-7-(2-fluorobenzyl)-3-methyl-3,7-dihydro-1H-purine-2,6-dione] |  | > 10 µM
Cc1ccc(C)c(CCN2CCN(c3nc4c(c(=O)[nH]c(=O)n4C)n3Cc3ccccc3F)CC2)c1 [Compound 46, 8-(4-(2,5-Dimethylphenethyl)piperazin-1-yl)-7-(2-fluorobenzyl)-3-methyl-3,7-dihydro-1H-purine-2,6-dione] |  | 10.2 µM

Compound | CC50 [1] | EC90 (West Nile virus)
Cn1c(=O)[nH]c(=O)c2c1nc(N1CCC(C(C)(C)C)CC1)n2Cc1ccccc1F [Compound 54, 8-(4-(tert-Butyl)piperidin-1-yl)-7-(2-fluorobenzyl)-3-methyl-3,7-dihydro-1H-purine-2,6-dione] |  | 1.5 µM
Cn1c(=O)[nH]c(=O)c2c1nc(N1CCC(Cc3ccc(C#N)cc3)CC1)n2Cc1ccccc1F [Compound 59, 4-((1-(7-(2-Fluorobenzyl)-3-methyl-2,6-dioxo-2,3,6,7-tetrahydro-1H-purin-8-yl)piperidin-4-yl)methyl)benzonitrile] |  | > 10 µM
Cc1ccc(C)c(CC(=O)N2CCN(c3nc4c(c(=O)[nH]c(=O)n4C)n3Cc3ccccc3F)CC2)c1 [Compound 48, 8-(4-(2-(2,5-Dimethylphenyl)acetyl)piperazin-1-yl)-7-(2-fluorobenzyl)-3-methyl-3,7-dihydro-1H-purine-2,6-dione] |  | > 10 µM
Cn1c(=O)[nH]c(=O)c2c1nc(N1CCC(Cc3cccnc3)CC1)n2Cc1ccccc1F [Compound 62, 7-(2-Fluorobenzyl)-3-methyl-8-(4-(pyridin-3-ylmethyl)piperidin-1-yl)-3,7-dihydro-1H-purine-2,6-dione] |  | 12.4 µM
Cn1c(=O)[nH]c(=O)c2c1nc(N1CCC(F)(F)CC1)n2Cc1ccccc1F [Compound 53, 8-(4,4-Difluoropiperidin-1-yl)-7-(2-fluorobenzyl)-3-methyl-3,7-dihydro-1H-purine-2,6-dione] |  | > 10 µM
Cn1c(=O)[nH]c(=O)c2c1nc(N1CCN(C(=O)c3ccc(C(C)(C)C)nc3)CC1)n2Cc1ccccc1F [Compound 45, 8-(4-(6-(tert-Butyl)nicotinoyl)piperazin-1-yl)-7-(2-fluorobenzyl)-3-methyl-3,7-dihydro-1H-purine-2,6-dione] |  | > 10 µM
Cc1ccc(C)c(CN2CCN(c3nc4c(c(=O)[nH]c(=O)n4C)n3Cc3cccnc3)CC2)c1 [Compound 10, 8-(4-(2,5-Dimethylbenzyl)piperazin-1-yl)-3-methyl-7-(pyridin-3-ylmethyl)-3,7-dihydro-1H-purine-2,6-dione] |  | > 10 µM
Cn1c(=O)[nH]c(=O)c2c1nc(N1CCNCC1)n2Cc1ccccc1F [Compound 21, 7-(2-Fluorobenzyl)-3-methyl-8-(piperazin-1-yl)-3,7-dihydro-1H-purine-2,6-dione] |  | > 10 µM
Cc1ccc(C)c(CN2CCN(c3nc4c([nH]3)c(=O)[nH]c(=O)n4C)CC2)c1 [Compound 7, 8-(4-(2,5-Dimethylbenzyl)piperazin-1-yl)-3-methyl-3,7-dihydro-1H-purine-2,6-dione] |  | > 10 µM
Cn1c(=O)[nH]c(=O)c2c1nc(N1CCN(C(C)(C)C)CC1)n2Cc1ccccc1F [Compound 24, 8-(4-(tert-Butyl)piperazin-1-yl)-7-(2-fluorobenzyl)-3-methyl-3,7-dihydro-1H-purine-2,6-dione] |  | > 10 µM
Cn1c(=O)[nH]c(=O)c2c1nc(N1CCN(CC(=O)c3ccc(C(C)(C)C)cc3)CC1)n2Cc1ccccc1F [Compound 49, 8-(4-(2-(4-(tert-butyl)phenyl)-2-oxoethyl)piperazin-1-yl)-7-(2-fluorobenzyl)-3-methyl-3,7-dihydro-1H-purine-2,6-dione] |  | > 10 µM
Cn1c(=O)[nH]c(=O)c2c1nc(N1CCN(c3ccc(C#N)cn3)CC1)n2Cc1ccccc1F [Compound 32, 6-(4-(7-(2-Fluorobenzyl)-3-methyl-2,6-dioxo-2,3,6,7-tetrahydro-1H-purin-8-yl)piperazin-1-yl)nicotinonitrile] |  | > 10 µM
Cc1ccc(C)c(CNCCNc2nc3c(c(=O)[nH]c(=O)n3C)n2Cc2ccccc2F)c1 [Compound 63, 8-((2-((2,5-dimethylbenzyl)amino)ethyl)amino)-7-(2-fluorobenzyl)-3-methyl-3,7-dihydro-1H-purine-2,6-dione] |  | > 10 µM
Cn1c(=O)[nH]c(=O)c2c1nc(N1CCC(C(F)(F)F)CC1)n2Cc1ccccc1F [Compound 55, 7-(2-Fluorobenzyl)-3-methyl-8-(4-(trifluoromethyl)piperidin-1-yl)-3,7-dihydro-1H-purine-2,6-dione] |  | > 10 µM
Cn1c(=O)[nH]c(=O)c2c1nc(N1CCC(Cc3cc(F)cc(F)c3)CC1)n2Cc1ccccc1F [Compound 61, 8-(4-(3,5-Difluorobenzyl)piperidin-1-yl)-7-(2-fluorobenzyl)-3-methyl-3,7-dihydro-1H-purine-2,6-dione] |  | > 10 µM
Cn1c(=O)[nH]c(=O)c2c1nc(N1CCN(c3ccc(Cl)cc3F)CC1)n2Cc1ccccc1F [Compound 31, 8-(4-(4-Chloro-2-fluorophenyl)piperazin-1-yl)-7-(2-fluorobenzyl)-3-methyl-3,7-dihydro-1H-purine-2,6-dione] |  | > 10 µM
Cn1c(=O)[nH]c(=O)c2c1nc(N1CCC(Cc3ccc(F)cc3)CC1)n2Cc1ccccc1F [Compound 60, 7-(2-Fluorobenzyl)-8-(4-(4-fluorobenzyl)piperidin-1-yl)-3-methyl-3,7-dihydro-1H-purine-2,6-dione] |  | > 10 µM
